Paper PMC8555546, “Conductance stability and Na+ interaction with Shab K+ channels under low K+ conditions” (Channels, 2021)

Target: T1, Shab K+ channel (dShab 11) (Drosophila melanogaster, UniProt P17970)
T1 construct: Shab cDNA (dShab 11) by recombinant baculovirus in Sf9 insect cells; homotetramer
T1 sequence (P17970 1-1015): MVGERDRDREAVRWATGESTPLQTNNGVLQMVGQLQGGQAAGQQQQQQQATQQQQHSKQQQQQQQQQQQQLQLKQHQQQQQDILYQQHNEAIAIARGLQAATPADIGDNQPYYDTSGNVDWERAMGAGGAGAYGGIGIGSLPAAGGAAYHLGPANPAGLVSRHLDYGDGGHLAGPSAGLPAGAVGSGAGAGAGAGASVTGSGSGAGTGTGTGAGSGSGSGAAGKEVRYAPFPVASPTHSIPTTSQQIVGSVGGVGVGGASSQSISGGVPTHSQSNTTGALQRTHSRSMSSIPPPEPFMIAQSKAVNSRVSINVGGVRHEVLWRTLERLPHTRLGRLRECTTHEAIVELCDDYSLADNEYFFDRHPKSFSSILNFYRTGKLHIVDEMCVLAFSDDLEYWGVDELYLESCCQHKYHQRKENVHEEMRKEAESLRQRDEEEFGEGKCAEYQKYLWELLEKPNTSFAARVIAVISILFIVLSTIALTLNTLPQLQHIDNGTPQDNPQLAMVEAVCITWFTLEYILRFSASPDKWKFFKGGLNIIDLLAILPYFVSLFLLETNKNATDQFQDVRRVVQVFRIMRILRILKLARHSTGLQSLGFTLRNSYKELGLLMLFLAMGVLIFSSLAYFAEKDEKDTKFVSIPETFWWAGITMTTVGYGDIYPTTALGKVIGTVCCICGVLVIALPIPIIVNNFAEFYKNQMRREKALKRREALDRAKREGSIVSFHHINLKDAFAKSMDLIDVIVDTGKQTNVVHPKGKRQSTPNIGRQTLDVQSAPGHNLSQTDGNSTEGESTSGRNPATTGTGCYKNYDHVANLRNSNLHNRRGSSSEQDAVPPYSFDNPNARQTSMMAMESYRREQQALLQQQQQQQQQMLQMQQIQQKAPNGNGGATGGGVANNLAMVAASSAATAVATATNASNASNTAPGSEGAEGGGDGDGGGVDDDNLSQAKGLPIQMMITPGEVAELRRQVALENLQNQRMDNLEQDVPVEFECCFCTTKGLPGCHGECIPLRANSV
Assay: whole-cell patch clamp, block of K+ current, Michaelis-Menten fit
Type: cell-based

A Kd of 10.8 mM was found for CC[N+](CC)(CC)CC [TEA] in this work.
